{
  "source": "patent US11753378B2",
  "about": "“Ketamine compounds and processes for making and using them” (Zevra Therapeutics, Inc., priority 2021, dated 2023)",
  "key": {"[1]": {"experiment": "Pharmacokinetics of ketamine and norketamine in plasma after oral gavage", "conditions": "for norketamine exposure relative to ketamine exposure compared to unconjugated ketamine / release of ketamine compared to unconjugated ketamine: in words; for release of ketamine compared to unconjugated ketamine: administered orally"}, "[2]": {"experiment": "Pharmacokinetics of ketamine and norketamine in plasma after intranasal administration"}, "NMDA receptor": {"system": "NMDA receptor", "conditions": "cited from earlier work"}, "[3]": {"conditions": "analyte ketamine, oral, mean conjugate parameter/mean comparator parameter"}, "[4]": {"conditions": "analyte norketamine, oral, mean conjugate parameter/mean comparator parameter"}, "[5]": {"conditions": "oral gavage, ketamine % parameter/norketamine % parameter"}},
  "data": [
    {"smiles": "CCOC(=O)CN(C)C(=O)c1ccc[n+](COC(=O)N(C)C2(c3ccccc3Cl)CCCCC2=O)c1.[Cl-]", "note": "(racemic) [9b, KTM-CO2CH2-nicotinoyl-Sar(Et)]", "values": [
      {"measurement": "% AUC0-4 hr, relative oral bioavailability of ketamine vs study comparator (Ketamine HCl)", "setting": "[1]; [3]", "value": 123, "unit": "%"},
      {"measurement": "% Cmax, relative oral bioavailability of ketamine vs study comparator (Ketamine HCl)", "setting": "[1]; [3]", "value": 124, "unit": "%"},
      {"measurement": "% AUC0-4 hr, relative oral bioavailability of norketamine vs study comparator (Ketamine HCl)", "setting": "[1]; [4]", "value": 62.7, "unit": "%"},
      {"measurement": "% Cmax, relative oral bioavailability of norketamine vs study comparator (Ketamine HCl)", "setting": "[1]; [4]", "value": 66.9, "unit": "%"},
      {"measurement": "% Exposure Ratio Ketamine:Norketamine, AUC0-4 hr", "setting": "[1]; [5]", "value": 1.96},
      {"measurement": "% Exposure Ratio Ketamine:Norketamine, Cmax", "setting": "[1]; [5]", "value": 1.85},
      {"measurement": "norketamine exposure relative to ketamine exposure compared to unconjugated ketamine", "setting": "[1]; oral", "value": "reduced norketamine exposure relative to ketamine exposure"},
      {"measurement": "% AUC0-1 hr, relative intranasal bioavailability of ketamine vs study comparator (Ketamine HCl)", "setting": "[2]; analyte ketamine, intranasal, mean conjugate parameter/mean comparator parameter", "value": 68.1, "unit": "%"},
      {"measurement": "% Cmax, relative intranasal bioavailability of ketamine vs study comparator (Ketamine HCl)", "setting": "[2]; analyte ketamine, intranasal, mean conjugate parameter/mean comparator parameter, 10k: time course stopped at 0.5 hours", "value": 62.0, "unit": "%"},
      {"measurement": "% AUC0-1 hr, relative intranasal bioavailability of norketamine vs study comparator (Ketamine HCl)", "setting": "[2]; analyte norketamine, intranasal, mean conjugate parameter/mean comparator parameter", "value": 39.5, "unit": "%"},
      {"measurement": "% Cmax, relative intranasal bioavailability of norketamine vs study comparator (Ketamine HCl)", "setting": "[2]; analyte norketamine, intranasal, mean conjugate parameter/mean comparator parameter, 10k: time course stopped at 0.5 hours", "value": 37.1, "unit": "%"},
      {"measurement": "% Exposure Ratio PO:IN, Cmax", "setting": "[2]; ketamine % parameter PO/ketamine % parameter IN", "value": 2.00},
      {"measurement": "% Exposure Ratio PO:IN, AUC", "setting": "[2]; ketamine % parameter PO/ketamine % parameter IN, AUC0-4 h for PO and AUC0-1 h for IN", "value": 1.80}
    ]},
    {"smiles": "CC(C)[C@H](NC(=O)c1ccc[n+](COC(=O)N(C)[C@]2(c3ccccc3Cl)CCCCC2=O)c1)C(=O)O", "note": "[S-10d, (S)-KTM-CO2CH2-nicotinoyl-Val]", "values": [
      {"measurement": "norketamine exposure relative to ketamine exposure compared to unconjugated ketamine", "setting": "[1]; oral", "value": "reduced norketamine exposure relative to ketamine exposure"}
    ]},
    {"smiles": "CN(C(=O)OC[n+]1cccc(C(=O)N[C@@H](CCC(N)=O)C(=O)O)c1)C1(c2ccccc2Cl)CCCCC1=O", "note": "(stereo partly shown) [10k, KTM-CO2CH2-nicotinoyl-Gln]", "values": [
      {"measurement": "norketamine exposure relative to ketamine exposure compared to unconjugated ketamine", "setting": "[1]; oral", "value": "reduced norketamine exposure relative to ketamine exposure"}
    ]},
    {"smiles": "CN[C@]1(c2ccccc2Cl)CCCCC1=O", "note": "(single isomer, unassigned) [S(+) isomer, reference compound]", "values": [
      {"measurement": "NMDA receptor antagonist potency relative to the R(−) isomer", "setting": "NMDA receptor; background statement", "value": "approximately three to four times that of the R(−) isomer"}
    ]},
    {"smiles": "CC[C@H](C)[C@H](NC(=O)c1ccc[n+](COC(=O)N(C)C2(c3ccccc3Cl)CCCCC2=O)c1)C(=O)O", "note": "(stereo partly shown) [10e, KTM-CO2CH2-nicotinoyl-Ile]", "values": [
      {"measurement": "norketamine exposure relative to ketamine exposure compared to unconjugated ketamine", "setting": "[1]; oral", "value": "reduced norketamine exposure relative to ketamine exposure"}
    ]},
    {"smiles": "CN(C(=O)OC[n+]1cccc(C(=O)N2CCC[C@H]2C(=O)O)c1)C1(c2ccccc2Cl)CCCCC1=O", "note": "(stereo partly shown) [10f, KTM-CO2CH2-nicotinoyl-Pro]", "values": [
      {"measurement": "norketamine exposure relative to ketamine exposure compared to unconjugated ketamine", "setting": "[1]; oral", "value": "reduced norketamine exposure relative to ketamine exposure"}
    ]},
    {"smiles": "CN(C(=O)OC[n+]1cccc(C(=O)N[C@@H](CCCCN)C(=O)O)c1)C1(c2ccccc2Cl)CCCCC1=O", "note": "(stereo partly shown) [10g, KTM-CO2CH2-nicotinoyl-Lys]", "values": [
      {"measurement": "release of ketamine compared to unconjugated ketamine", "setting": "[1]", "value": "extended or delayed release"}
    ]},
    {"smiles": "CC(C)[C@H](NC(=O)c1ccc[n+](COC(=O)N(C)C2(c3ccccc3Cl)CCCCC2=O)c1)C(=O)O", "note": "(stereo partly shown) [10d, KTM-CO2CH2-nicotinoyl-Val]", "values": [
      {"measurement": "norketamine exposure relative to ketamine exposure compared to unconjugated ketamine", "setting": "[1]; oral", "value": "reduced norketamine exposure relative to ketamine exposure"}
    ]},
    {"smiles": "CSCC[C@H](NC(=O)c1ccc[n+](COC(=O)N(C)C2(c3ccccc3Cl)CCCCC2=O)c1)C(=O)O", "note": "(stereo partly shown) [10s, KTM-CO2CH2-nicotinoyl-Met]", "values": [
      {"measurement": "norketamine exposure relative to ketamine exposure compared to unconjugated ketamine", "setting": "[1]; oral", "value": "reduced norketamine exposure relative to ketamine exposure"}
    ]},
    {"smiles": "CN(C(=O)OCOC(=O)c1ccncc1)C1(c2ccccc2Cl)CCCCC1=O.Cl", "note": "(stereo not shown) [3b, Isonicotinate-CH2OCO-KTM HCl]", "values": [
      {"measurement": "norketamine exposure relative to ketamine exposure compared to unconjugated ketamine", "setting": "[1]; oral", "value": "reduced norketamine exposure relative to ketamine exposure"}
    ]},
    {"smiles": "NC1(c2ccccc2Cl)CCCCC1=O", "note": "(stereo not shown) [norketamine]", "values": [
      {"measurement": "NMDA receptor antagonist potency compared to ketamine", "setting": "NMDA receptor; statement in words", "value": "less potent antagonist"}
    ]},
    {"smiles": "CN(CC(=O)O)C(=O)c1cc[n+](COC(=O)N(C)C2(c3ccccc3Cl)CCCCC2=O)cc1", "note": "(stereo not shown) [11b, KTM-CO2CH2-isonicotinoyl-Sar]", "values": [
      {"measurement": "release of ketamine compared to unconjugated ketamine", "setting": "[1]", "value": "extended or delayed release"},
      {"measurement": "norketamine exposure relative to ketamine exposure compared to unconjugated ketamine", "setting": "[1]; oral", "value": "reduced norketamine exposure relative to ketamine exposure"}
    ]}
  ]
}
